Test results from US20180339963A1, “ANTICONVULSANT CARBAMATE DERIVATIVES” (Yissum Research Development Company of the Hebrew …, priority 2017, published 2018).
Read-outs that look alike come from different tables or passages of the source.

Key:
[1] = target: T1, hCA I (Homo sapiens, UniProt P00915); assay: Stopped flow CO2 hydrase assay, hCA I; format: biochemical; settings: mean from 3 assays, read-out: K1, hCAI
T1 construct: made in house
Protocol: (§1) An Applied Photophysics stopped-flow instrument has been used for assaying the CA catalysed CO2 hydration activity. Phenol red (at a concentration of 0.2 mM) has been used as indicator, working at the absorbance maximum of 557 nm, with 20 mM Hepes (pH 7.5) as buffer, and 20 mM Na2SO4 (for maintaining constant the ionic strength), following the initial rates of the CA-catalyzed CO2 hydration reaction for a period of 10-100 s. The CO2 concentrations ranged from 1.7 to 17 mM for the determination of the kinetic parameters and inhibition constants. […] The uncatalyzed rates were determined in the same manner and subtracted from the total observed rates. Stock solutions of inhibitor (0.1 mM) were prepared in distilled-deionized water and dilutions up to 0.01 nM were done thereafter with the assay buffer. […] The inhibition constants were obtained by non-linear least-squares methods using PRISM 3 and the Cheng-Prusoff equation, as reported earlier and represent the mean from at least three different determinations. All CA isofoms were recombinant ones obtained in-house.

[2] = target: T2, hCA II (Homo sapiens, UniProt P00918); assay: Stopped flow CO2 hydrase assay, hCA II; format: biochemical; settings: mean from 3 assays, read-out: K1, hCA II
T2 construct: made in house
Protocol: as §1

[3] = target: T3, hCA IV (Homo sapiens, UniProt P22748); assay: Stopped flow CO2 hydrase assay, hCA IV; format: biochemical; settings: mean from 3 assays; for Ki: read-out: K1, hCA IV
T3 construct: made in house
T3 sequence (P22748 19-284): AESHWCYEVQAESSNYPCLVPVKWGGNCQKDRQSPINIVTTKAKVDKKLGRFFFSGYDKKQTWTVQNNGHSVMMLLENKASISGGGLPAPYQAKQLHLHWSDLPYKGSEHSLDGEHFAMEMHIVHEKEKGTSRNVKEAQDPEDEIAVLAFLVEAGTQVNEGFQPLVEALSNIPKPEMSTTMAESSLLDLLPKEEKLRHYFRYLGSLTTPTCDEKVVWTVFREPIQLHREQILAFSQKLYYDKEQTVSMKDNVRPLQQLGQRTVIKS
Protocol: as §1

[4] = target: T4, hCA VII (Homo sapiens, UniProt P43166); assay: Stopped flow CO2 hydrase assay, hCA VII; format: biochemical; settings: mean from 3 assays, read-out: K1, hCA VII
T4 construct: made in house
T4 sequence (P43166 whole entry): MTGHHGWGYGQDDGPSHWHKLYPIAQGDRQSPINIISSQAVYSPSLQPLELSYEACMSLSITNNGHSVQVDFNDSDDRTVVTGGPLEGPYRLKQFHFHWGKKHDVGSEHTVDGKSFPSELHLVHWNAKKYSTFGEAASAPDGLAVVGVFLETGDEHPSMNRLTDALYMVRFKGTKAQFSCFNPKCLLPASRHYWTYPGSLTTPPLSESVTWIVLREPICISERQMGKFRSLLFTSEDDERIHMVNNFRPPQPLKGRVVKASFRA
Protocol: as §1

[5] = test system: 6 Hz psychomotor seizure; assay: 6 Hz psychomotor seizure test in mice; settings: Mus musculus, ip, read-out: 6 Hz, number of mice protected/number of mice tested
[6] = test system: maximal electroshock seizure (MES); assay: Maximal electroshock seizure (MES) test in mice; settings: Mus musculus, ip, read-out: MES, number of mice protected/number of mice tested
[7] = test system: mice; assay: Neurotoxicity (minimal motor impairment, rotarod) in mice; settings: mice i.p.

T1 sequence (P00915 whole entry): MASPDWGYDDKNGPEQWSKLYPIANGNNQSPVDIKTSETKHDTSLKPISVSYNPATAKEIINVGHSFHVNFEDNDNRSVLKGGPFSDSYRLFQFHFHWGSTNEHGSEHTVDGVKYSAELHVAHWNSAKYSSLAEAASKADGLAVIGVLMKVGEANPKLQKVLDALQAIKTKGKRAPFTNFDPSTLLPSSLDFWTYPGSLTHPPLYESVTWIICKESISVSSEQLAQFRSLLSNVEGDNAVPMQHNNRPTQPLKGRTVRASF

Structure (SMILES) | Ki [1] | Ki [2] | Ki [3] | Ki [4] | melting point | responders at 30 mg/kg ([5]; 0.5 h) | responders at 100 mg/kg ([5]; 0.5 h) | responders at 300 mg/kg ([5]; 0.5 h) | responders at 30 mg/kg ([5]; 2 h) | responders at 100 mg/kg ([5]; 2 h) | responders at 300 mg/kg ([5]; 2 h) | responders at 30 mg/kg ([6]; 0.5 h) | responders at 100 mg/kg ([6]; 0.5 h) | responders at 300 mg/kg ([6]; 0.5 h) | responders at 30 mg/kg ([6]; 2 h) | responders at 100 mg/kg ([6]; 2 h) | responders at 300 mg/kg ([6]; 2 h) | Tox (motor impairment or sedation), number of animals affected/number of animals tested ([7]; 30 mg/kg, 0.5 h) | Tox (motor impairment or sedation), number of animals affected/number of animals tested ([7]; 30 mg/kg, 2.0 h) | Tox (motor impairment or sedation), number of animals affected/number of animals tested ([7]; 100 mg/kg, 0.5 h) | further results
CCCCC(CC)COC(=O)Nc1ccc(S(N)(=O)=O)cc1 (stereo not shown) [Compound 2, 2-ethylhexyl (4-sulfamoylphenyl)carbamate] | 421 nM | 8.7 nM | > 10000 nM | > 10000 nM | 192 to 195 °C | 0% | 75% | 50% | 0% | 0% | 25% | 0% | 25% | 25% | 0% | 0% | 25% | 0/8 | 0/8 | 0/8 | Tox (motor impairment or sedation), number of animals affected/number of animals tested ([7]; 100 mg/kg, 2.0 h): 0/8; Tox (motor impairment or sedation), number of animals affected/number of animals tested ([7]; 300 mg/kg, 0.5 h): 0/8; Tox (motor impairment or sedation), number of animals affected/number of animals tested ([7]; 300 mg/kg, 2.0 h): 0/8
CCCC(CCC)COC(=O)Nc1ccc(S(N)(=O)=O)cc1 [Compound 3, 2-propylpentyl (4-sulfamoylphenyl)carbamate] | 485 nM | 19.6 nM | > 10000 nM | > 10000 nM | 176 to 177 °C | 0% | 0% | 25% | 0% | 0% | 0% | 0% | 0% | 0% | 0% | 0% | 0% | 0/8 | 0/8 | 0/8 | Tox (motor impairment or sedation), number of animals affected/number of animals tested ([7]; 100 mg/kg, 2.0 h): 0/8; Tox (motor impairment or sedation), number of animals affected/number of animals tested ([7]; 300 mg/kg, 0.5 h): 0/8; Tox (motor impairment or sedation), number of animals affected/number of animals tested ([7]; 300 mg/kg, 2.0 h): 0/8
CC(C)(C)CCOC(=O)Nc1ccc(S(N)(=O)=O)cc1 [Compound 4, 3,3-dimethylbutyl (4-sulfamoylphenyl)carbamate] | 59.5 nM | 4.5 nM | 1840 nM | 44.4 nM | 170 to 173 °C | 0% | 0% | 0% | 0% | 0% | 0% | 0% | 0% | 25% | 0% | 0% | 25% | 0/8 | 0/8 | 0/8 | Tox (motor impairment or sedation), number of animals affected/number of animals tested ([7]; 100 mg/kg, 2.0 h): 0/8; Tox (motor impairment or sedation), number of animals affected/number of animals tested ([7]; 300 mg/kg, 0.5 h): 0/8; Tox (motor impairment or sedation), number of animals affected/number of animals tested ([7]; 300 mg/kg, 2.0 h): 0/8
NS(=O)(=O)c1ccc(NC(=O)OCCc2ccccc2)cc1 [Compound 5, phenethyl (4-sulfamoylphenyl)carbamate] | 5.9 nM | 0.6 nM | 303 nM | 24.5 nM | 212 to 213 °C | 0% | 0% | 0% | 0% | 0% | 0% | 0% | 0% | 0% | 25% | 25% | 50% | 0/8 | 0/8 | 0/8 | K1, hCA IV [3]: medium potency inhibitors; Tox (motor impairment or sedation), number of animals affected/number of animals tested ([7]; 100 mg/kg, 2.0 h): 0/8; Tox (motor impairment or sedation), number of animals affected/number of animals tested ([7]; 300 mg/kg, 0.5 h): 0/8; Tox (motor impairment or sedation), number of animals affected/number of animals tested ([7]; 300 mg/kg, 2.0 h): 0/8
CCC(CC)COC(=O)Nc1ccc(S(N)(=O)=O)cc1 [Compound 6, 2-ethylbutyl (4-sulfamoylphenyl)carbamate] | 169 nM | 5.2 nM | 1690 nM | 52 nM | 162 to 165 °C | 0% | 25% | 25% | 0% | 0% | 25% | 0% | 0% | 0% | 0% | 0% | 0% | 0/8 | 0/8 | 0/8 | Tox (motor impairment or sedation), number of animals affected/number of animals tested ([7]; 100 mg/kg, 2.0 h): 0/8; Tox (motor impairment or sedation), number of animals affected/number of animals tested ([7]; 300 mg/kg, 0.5 h): 0/8; Tox (motor impairment or sedation), number of animals affected/number of animals tested ([7]; 300 mg/kg, 2.0 h): 0/8
CC(COC(=O)Nc1ccc(S(N)(=O)=O)cc1)CC(C)(C)C (stereo not shown) [Compound 7, 2,4,4-trimethylpentyl (4-sulfamoylphenyl)carbamate] | 83.5 nM | 5 nM | 2760 nM | 712 nM | 199 to 201 °C | 25% | 25% | 100% | 0% | 50% | 75% | 0% | 0% | 0% | 0% | 25% | 50% | 0/8 | 0/8 | 0/8 | Tox (motor impairment or sedation), number of animals affected/number of animals tested ([7]; 100 mg/kg, 2.0 h): 0/8; Tox (motor impairment or sedation), number of animals affected/number of animals tested ([7]; 300 mg/kg, 0.5 h): 0/8; Tox (motor impairment or sedation), number of animals affected/number of animals tested ([7]; 300 mg/kg, 2.0 h): 0/8
